# Experimental data published in patent US9340532B2, “Methods and compositions for inhibiting CNKSR1” (PHUSIS THERAPEUTICS, INC., priority 2012, dated 2016).
# Values joined by “and” are separate entries in the source; they are usually repeats but may differ in a detail not shown here. Equal values may be shown once.
# Columns and labels:
# PH-domain of AKT = target: T1, PH-domain of AKT (Homo sapiens, UniProt P31749); experiment: SPR binding to expressed PH-domain of AKT
# T1 construct: made in house
# T1 sequence (P31749 5-108 limits assumed): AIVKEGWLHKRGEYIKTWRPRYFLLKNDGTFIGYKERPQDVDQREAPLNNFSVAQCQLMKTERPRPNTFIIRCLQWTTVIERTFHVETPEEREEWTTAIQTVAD
# Protocol: (§1) In embodiments, the binding of identified compounds to the crystal structures of other PH-domain signaling proteins, AKT, PDPK1, Btk, and Tiam1 can be predicted. In such embodiments, the Kds exceed about 100 μM. In other embodiments, SPR can measure the binding of identified compounds to the expressed PH-domains of AKT, PDPK1 and Tiam1. […] Thus, the identified compounds appear have, at least, about 50 to about 100 fold selectivity for CNKSR1 compared to the other PH-domains studied.
# (§2) A commercially available docking package, GOLD (GOLD [3.2], CCDC: Cambridge, UK, 2007) was used to evaluate the docking of compounds 1-7 into the binding pocket, see e.g. Table 5. Other docking was performed using modeling algorithms with state-of-the-art commercial drug discovery software (Schrodinger suite). GLIDE was chosen as the docking algorithm used to select and optimize compounds, providing a GlideScore as a rough estimate of binding affinity that was used to rank and select the best compounds. Additionally, ligand-based approaches provided an alternative to structure based drug discovery. Ligand-based virtual screening methodologies can take into account shape and electrostatics (like ROCS) and the pharmacophoric features (acceptor, donor, hydrophobic, aromatic, etc.) of its functional groups. […]
# [1] = Mouse pharmacokinetics (iv); assay type: in vivo
# [2] = Pharmacokinetics after oral administration; assay type: in vivo, mice; settings: for elimination half life: oral, mice
# Protocol: In order to understand better the reasons for the antitumor activity of compound #7 pharmacokinetic studies were conducted. […] Following oral administration in vivo plasma concentrations of the parent compound were low, about 3 μg/ml (7 μM) whereas the de-esterified acid form (compound 8) was present at high peak concentrations of around 50 μg/ml (128 μM). When compound 8 was administered orally to mice at the same dose even higher peak concentrations of 90 μg/ml (230 μM) were achieved.
# [3] = tested on: H226 (KRAS wildtype cell line); experiment: Proliferation Assay H226; assay type: cell-based; settings: Homo sapiens, NCI-H226, n = 1
# Outline: (§3)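 Cells plated 2000 per well, allowed 24 h to attach, then exposed 72 h to agents (0-100 μM for isogenic lines; 0.01 to 50 μM for the RPMI 1640/10% FBS-cultured 30-line NSCLC panel). MTS read at 490 nm after 2 h, normalized to no-cell and no-drug controls; IC50 from curve fitting.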
# PH-domain of Tiam1 = experiment: SPR binding to expressed PH-domain of Tiam1
# Protocol: as §1, §2
# [4] = Stability in biological media: mouse plasma; assay type: in vitro ADME; settings: 50 μg/ml, 37° C.
# wt-KRAS NSCLC cell lines = experiment: Screening against NSCLC cell line panel, wt-KRAS lines; assay type: cell-based; settings: Table 6, mean of 3 wt-KRAS lines; read-out: NSCL cell line cytotoxicity IC50 wt-KRAS
# Protocol: The isogenic KRAS lines harboring G12D, G12C, and G12V were obtained from Horizon Discovery labs on a one year lease. These cells were cultured in McCoys media with 10% FBS to 80% confluency. Cells were then released from flasks via trypsinization and plated into 96-well plates at an initial density range of 2000 cells per well. Cells were allowed 24 hours to attach, and then the agents were added to the culture media at a range of concentrations from 0-100 μM. Cells were incubated for 72 hours with the drugs, and then viability was assessed using an MTS viability assay. Cells were exposed to MTS reagent (Promega) dissolved in PBS (Hyclone) at a concentration of 200 μL reagent/mL media for 2 hours. Absorbance was then read at 490 nm, and viability was expressed as a percentage normalized between the negative control (no cells plated) and the condition of cells with no drug added (100% viability) normalized as the upper limit of viability.
# Our panel of 30 cell lines and an extensive characterization were obtained from Dr. John Minna (UTSW). All cell lines were cultured in RPMI 1640 with 10% FBS. Cells were treated with concentrations of agents at concentrations 0.01 to 50 μM and evaluated as described above. IC50's were determined using Excelfit.
# [5] = tested on: mut-KRAS H2122 NSCLC tumor xenograft; experiment: Antitumor activity, H2122 xenograft; assay type: in vivo; settings: scid mice
# Protocol: In embodiments, identified compounds may be nontoxic at about […] for about 20 days with no weight loss and no observable toxic effects for the animal, and may have antitumor activity (FIG. 4 A).
# PH-domain of PDPK1 = target: T2, PH-domain of PDPK1 (Homo sapiens, UniProt O15530); experiment: SPR binding to expressed PH-domain of PDPK1
# T2 construct: made in house
# T2 sequence (O15530 459-550 limits assumed): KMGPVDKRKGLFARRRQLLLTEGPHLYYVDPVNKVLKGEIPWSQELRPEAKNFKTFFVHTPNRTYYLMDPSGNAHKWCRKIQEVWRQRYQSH
# Protocol: as §1, §2
# [6] = tested on: A549 (KRAS mutant cell line); experiment: Proliferation Assay A549; assay type: cell-based; settings: Homo sapiens, N = 2 experiments
# Outline: as §3
# [7] = Stability in biological media: fetal bovine serum; assay type: in vitro ADME; settings: 10% fetal bovine serum, 50 μg/ml, 37° C.
structure (smiles),measurement,setting,value
CCOC(=O)Cc1nn(Cc2nc(-c3ccc(C)cc3)cs2)c(=O)c2ccccc12 [Compound 7],SPR binding to PH-domain of AKT,PH-domain of AKT,No measurable binding
same,t1/2β,[1],3 UN min
same,plasma concentration of the parent compound,"[2]; compound #7 orally 200 mg/kg, 200 mg/kg",about 3 μg/ml and ~7 μM
same,elimination half life,[2],13 h
same,elimination half life,[2]; listed as #7,6 h
same,metabolism in vivo to the acid metabolite,"[2]; orally 200 mg/kg, FIG. 4B",rapidly de-esterified
same,IC50,[3],> 100 µM
same,SPR binding to PH-domain of Tiam1,PH-domain of Tiam1,No measurable binding
same,Half life,[4],6.3 min
same,IC50,wt-KRAS NSCLC cell lines,> 100 µM
same,tumor growth rate inhibition,[5],about 45%
same,tumor growth rate,[5]; vehicle about 55,about 30 mm^3/day
same,SPR binding to PH-domain of PDPK1,PH-domain of PDPK1,No measurable binding
same,IC50,[6],15 µM
same,Half life,[7],13.2 h
